These are literature values, as cited in US8592424B2, “Topical regional neuro-affective therapy” (Afgin Pharma LLC, priority 2008, dated 2013).

Molecules are shown by their SMILES. Structures can show the parent of a compound that is named as a salt.

One series has as its system serotonin receptors. Particulars: in vitro tests.
Series [1] has as its system alpha-adrenergic receptors. Particulars: in vitro tests; some alpha-adrenergic receptors.
The target in the next series is dopamine D1 receptor (Homo sapiens, UniProt P21728). Particulars: in vitro tests.
Chain of dopamine D1 receptor (P21728 whole entry): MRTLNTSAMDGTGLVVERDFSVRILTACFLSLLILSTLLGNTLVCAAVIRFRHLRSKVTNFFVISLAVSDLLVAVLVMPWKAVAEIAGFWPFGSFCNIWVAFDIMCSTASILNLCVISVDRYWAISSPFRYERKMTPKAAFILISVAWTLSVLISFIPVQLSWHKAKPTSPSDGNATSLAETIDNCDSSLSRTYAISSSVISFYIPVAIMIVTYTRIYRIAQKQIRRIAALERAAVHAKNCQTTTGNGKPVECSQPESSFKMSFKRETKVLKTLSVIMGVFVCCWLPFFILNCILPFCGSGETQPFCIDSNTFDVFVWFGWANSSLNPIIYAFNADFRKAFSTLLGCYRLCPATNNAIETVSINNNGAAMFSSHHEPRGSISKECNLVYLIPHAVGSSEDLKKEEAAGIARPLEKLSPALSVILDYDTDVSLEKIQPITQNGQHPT
Series [2] concerns patients with advanced Parkinson's disease, "off periods".
The target in the next series is D4 dopamine receptor (Homo sapiens, UniProt P21917). Particulars: in vitro tests.
Chain of D4 dopamine receptor (P21917 whole entry): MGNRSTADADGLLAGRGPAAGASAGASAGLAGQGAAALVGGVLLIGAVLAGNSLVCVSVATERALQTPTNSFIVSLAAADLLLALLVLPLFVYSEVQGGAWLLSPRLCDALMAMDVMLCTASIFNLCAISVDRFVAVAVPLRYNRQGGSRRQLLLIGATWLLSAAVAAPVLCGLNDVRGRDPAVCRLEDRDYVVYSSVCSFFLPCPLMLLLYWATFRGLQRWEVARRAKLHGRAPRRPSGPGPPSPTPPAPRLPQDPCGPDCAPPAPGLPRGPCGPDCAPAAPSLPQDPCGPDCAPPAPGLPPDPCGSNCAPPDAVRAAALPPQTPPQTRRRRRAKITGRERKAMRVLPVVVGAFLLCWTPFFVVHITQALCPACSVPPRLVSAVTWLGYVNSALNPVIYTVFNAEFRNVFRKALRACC
For a further series, the target named is D2 dopamine receptor (Homo sapiens, UniProt P14416). Conditions: in vitro tests.
Chain of D2 dopamine receptor (P14416 whole entry): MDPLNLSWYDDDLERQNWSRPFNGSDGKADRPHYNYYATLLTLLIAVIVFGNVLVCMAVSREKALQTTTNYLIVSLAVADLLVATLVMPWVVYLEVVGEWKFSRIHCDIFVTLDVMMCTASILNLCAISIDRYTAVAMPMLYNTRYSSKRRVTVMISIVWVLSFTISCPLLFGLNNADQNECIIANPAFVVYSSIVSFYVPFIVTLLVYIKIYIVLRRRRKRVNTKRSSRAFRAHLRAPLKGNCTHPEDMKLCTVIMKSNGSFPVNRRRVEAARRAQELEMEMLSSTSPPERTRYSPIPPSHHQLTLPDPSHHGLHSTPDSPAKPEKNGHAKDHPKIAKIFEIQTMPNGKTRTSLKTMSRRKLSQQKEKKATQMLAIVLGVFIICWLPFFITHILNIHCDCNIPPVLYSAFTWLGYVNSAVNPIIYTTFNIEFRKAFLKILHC
The target in the next series is D3 dopamine receptor (Homo sapiens, UniProt P35462). Particulars: in vitro tests.
Chain of D3 dopamine receptor (P35462 whole entry): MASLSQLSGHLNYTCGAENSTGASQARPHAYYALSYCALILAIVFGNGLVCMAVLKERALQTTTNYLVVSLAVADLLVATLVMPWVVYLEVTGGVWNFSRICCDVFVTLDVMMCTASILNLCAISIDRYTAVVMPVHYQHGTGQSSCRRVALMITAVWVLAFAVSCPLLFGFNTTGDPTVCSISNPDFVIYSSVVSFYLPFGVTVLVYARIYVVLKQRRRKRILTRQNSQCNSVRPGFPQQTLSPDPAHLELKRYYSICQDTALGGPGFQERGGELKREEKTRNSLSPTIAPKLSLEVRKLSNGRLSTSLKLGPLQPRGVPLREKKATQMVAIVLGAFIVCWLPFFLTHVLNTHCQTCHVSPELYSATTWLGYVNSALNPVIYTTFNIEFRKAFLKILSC
For series [3], the system named is patients, some with impotence with erectile dysfunction. Conditions: apomorphine injections, observed and reported.
The mark [4] stands for this setting: reported clinical trials, despite using Tigan.

Regarding `CN1CCc2cccc3c2[C@H]1Cc1ccc(O)c(O)c1-3` [Apomorphine hydrochloride], the affinity entry is recorded as “low” in the series on serotonin receptors; “moderate” in series [1]; “low” at dopamine D1 receptor; “high” on D4 dopamine receptor; “moderate” at D2 dopamine receptor; “moderate” on D3 dopamine receptor. The “other commonly reported adverse events in clinical trials” value in series [2] (oral and injectible forms) was “dizziness, yawning, somnolence, rhinorrhea, sweating, flushing, pallor, hallucinations, edema, and chest pain”. In addition, the patients experiencing nausea in series [2] (setting [4]) is 31%. In addition, the patients experiencing vomiting in series [2] (setting [4]) is 11%. Also, the “time to take effect” value in series [2] (subcutaneous injection, reported) is 10 to 15 min. The solubility in water entry (at 80 degrees Celsius) is on record as “soluble”. The “effect on sexual function” value in [3] is “improvement in sexual function”.

As for `c1cnc2cc3c(cc2n1)[C@@H]1CNC[C@H]3C1` [varenicline], the water solubility result is listed as “high”.
